Laboratory results reported in US20170232083A1, “METHODS OF DIAGNOSIS AND TREATMENT OF CELIAC DISEASE IN CHILDREN” (priority 2014, published 2017).

System: PBMC (polyclonal gluten-specific T cells) of paediatric and adult CD patients
Experiment: IFN-γ ELISpot of PBMC after 3 day oral wheat challenge (SFU, % of maximal peptide response, dominance scores, EC50; Examples 5-6)
Type: cell-based, human
Details: for IFN-γ ELISpot response: after oral wheat challenge; for Cross-reactive T cell response: following wheat challenge
[1] = patient A, 11-17 yrs, cut-off 10 SFU
[2] = patient E, H, 11-17 yrs, cut-off 10 SFU
[3] = patient F, 11-17 yrs, cut-off 10 SFU
[4] = patient G, 11-17 yrs, cut-off 10 SFU
[5] = patient H (HLA-DQ2.5 homozygote), 3-5yrs, cut-off 10 SFU
[6] = patient H, 11-17 yrs, cut-off 10 SFU
[7] = patient ID not given, 11-17 yrs, cut-off 10 SFU
[8] = patient N, 3-5yrs, cut-off 10 SFU
[9] = patient P, 11-17 yrs, cut-off 21.6 SFU
[10] = patient Q, 11-17 yrs, cut-off 10 SFU
[11] = patient U, H, 11-17 yrs, cut-off 10 SFU
[12] = patient V, 6-10 yrs, cut-off 10 SFU
[13] = patient Y, 6-10 yrs, cut-off 10 SFU
[14] = patient eleven, 6-10 yrs, cut-off 10 SFU
[15] = patient four, 3-5yrs, cut-off 10 SFU
[16] = patient seven, 6-10 yrs, cut-off 10.5 SFU
[17] = patient ten, 3-5yrs, cut-off 10 SFU
[18] = patient three, 6-10 yrs, cut-off 10.5 SFU
[19] = patient twelve, 11-17 yrs, cut-off 10 SFU
[20] = patient two, 3-5yrs, cut-off 10 SFU
[21] = patient ID not given, max peptide 95 SFU
[22] = patient D, max peptide 30.5 SFU
[23] = patient five, max peptide 48 SFU
[24] = patient two, max peptide 60 SFU

PIPQQPQQPFPLQ
IFN-γ ELISpot response [1]: 6 SFU | IFN-γ ELISpot response [2]: 5 SFU | IFN-γ ELISpot response [3]: 5 SFU | IFN-γ ELISpot response [4]: 2 SFU | IFN-γ ELISpot response [5]: 0 SFU | IFN-γ ELISpot response [6]: 10 SFU | Significant response as percentage of maximal peptide SFU (patient H, max peptide 17 SFU): ′′′ (41-70% = ′′′) | IFN-γ ELISpot response [7]: 3 SFU | Significant response as percentage of maximal peptide SFU (patient II, max peptide 15 SFU): + (>70% = +) | IFN-γ ELISpot response [8]: 1 SFU | IFN-γ ELISpot response [9]: 9 SFU | IFN-γ ELISpot response [10]: 13 SFU | Significant response as percentage of maximal peptide SFU (patient Q, max peptide 97 SFU): ′ (11-20% = ′) | IFN-γ ELISpot response [11]: 4 SFU | IFN-γ ELISpot response [12]: 9 SFU | IFN-γ ELISpot response [13]: 5 SFU | IFN-γ ELISpot response [14]: 4 SFU | IFN-γ ELISpot response [15]: 1 SFU | IFN-γ ELISpot response [16]: 14 SFU | Significant response as percentage of maximal peptide SFU (patient seven, max peptide 27 SFU): ′′′ (41-70% = ′′′) | IFN-γ ELISpot response [17]: 7 SFU | IFN-γ ELISpot response [18]: 1 SFU | IFN-γ ELISpot response [19]: 1 SFU | IFN-γ ELISpot response [20]: 2 SFU

PEQPQPFPEQPVPQQP
Cross-reactive T cell response (subject A, 11-17yrs): 3 SFU | Cross-reactive T cell response (subject D, 11-17yrs): 3 SFU | Cross-reactive T cell response (subject E, 11-17yrs): 4 SFU | Cross-reactive T cell response (subject F, 11-17yrs): 6 SFU | Cross-reactive T cell response (subject G, 11-17yrs): 1 SFU | Cross-reactive T cell response (subject H): 0 SFU | Cross-reactive T cell response (subject I (3-5yrs/6-10yrs part)): 0 SFU | Cross-reactive T cell response (subject J (3-5yrs/6-10yrs part)): 7 SFU | Cross-reactive T cell response (subject K (3-5yrs/6-10yrs part)): 4 SFU | Cross-reactive T cell response (subject P, 11-17yrs): 8 SFU | Cross-reactive T cell response (subject Q, 11-17yrs): 6 SFU | Cross-reactive T cell response (subject T, 11-17yrs): 5 SFU | Cross-reactive T cell response (subject U, 11-17yrs): 1 SFU | Cross-reactive T cell response (subject V (3-5yrs/6-10yrs part)): 3 SFU | Cross-reactive T cell response (subject W (3-5yrs/6-10yrs part)): 4 SFU | Cross-reactive T cell response (subject Y (3-5yrs/6-10yrs part)): 2 SFU | Cross-reactive T cell response (subject five (3-5yrs/6-10yrs part)): 0 SFU | Cross-reactive T cell response (subject nine, 11-17yrs): 0 SFU | Cross-reactive T cell response (subject seven (3-5yrs/6-10yrs part)): 4 SFU | Cross-reactive T cell response (subject six (3-5yrs/6-10yrs part)): 2 SFU | Significant response as a percentage of maximal peptide SFU (subject ten): + (>70% = +) | Cross-reactive T cell response (subject ten (3-5yrs/6-10yrs part)): 11 SFU | Cross-reactive T cell response (subject two (3-5yrs/6-10yrs part)): 3 SFU

QFIQPEQPFPQQ
IFN-γ ELISpot response [1]: 0 SFU | IFN-γ ELISpot response [2]: 31 SFU | Significant response as percentage of maximal peptide SFU (patient E, max peptide 224 SFU): ′ (11-20% = ′) | IFN-γ ELISpot response [3]: 28 SFU | Significant response as percentage of maximal peptide SFU (patient F, max peptide 178 SFU): ′ (11-20% = ′) | IFN-γ ELISpot response [4]: 2 SFU | IFN-γ ELISpot response [5]: 8 SFU | IFN-γ ELISpot response [6]: 3 SFU | IFN-γ ELISpot response [7]: 21 SFU | Significant response as percentage of maximal peptide SFU [21]: ′′ (21-40% = ′′) | Significant response as percentage of maximal peptide SFU (patient II, max peptide 15 SFU): + (>70% = +) | Significant response as percentage of maximal peptide SFU (patient J, max peptide 196 SFU): ′ (11-20% = ′) | Significant response as percentage of maximal peptide SFU (patient K, max peptide 53 SFU): ′′ (21-40% = ′′) | IFN-γ ELISpot response [8]: 6 SFU | IFN-γ ELISpot response [9]: 8 SFU | IFN-γ ELISpot response [10]: 25 SFU | Significant response as percentage of maximal peptide SFU (patient Q, max peptide 97 SFU): ′′ (21-40% = ′′) | IFN-γ ELISpot response [11]: 13 SFU | Significant response as percentage of maximal peptide SFU (patient U, max peptide 81 SFU): ′ (11-20% = ′) | IFN-γ ELISpot response [12]: 19 SFU | Significant response as percentage of maximal peptide SFU (patient V, max peptide 35 SFU): ′′′ (41-70% = ′′′) | IFN-γ ELISpot response [13]: 3 SFU | IFN-γ ELISpot response [14]: 0 SFU | IFN-γ ELISpot response [15]: 6 SFU | IFN-γ ELISpot response [16]: 8 SFU | IFN-γ ELISpot response [17]: 6 SFU | IFN-γ ELISpot response [18]: 30 SFU | IFN-γ ELISpot response [19]: 6 SFU | IFN-γ ELISpot response [20]: 7 SFU

LQPRPQPELPYPQP
IFN-γ ELISpot response [1]: 6 SFU | Significant response as percentage of maximal peptide SFU [22]: ′′′ (41-70% = ′′′) | IFN-γ ELISpot response [2]: 142 SFU | Significant response as percentage of maximal peptide SFU (patient E, max peptide 224 SFU): ′′′ (41-70% = ′′′) | IFN-γ ELISpot response [3]: 178 SFU | Significant response as percentage of maximal peptide SFU (patient F, max peptide 178 SFU): + (>70% = +) | IFN-γ ELISpot response [4]: 4 SFU | IFN-γ ELISpot response [5]: 45 SFU | IFN-γ ELISpot response [6]: 10 SFU | Significant response as percentage of maximal peptide SFU (patient H, max peptide 17 SFU): ′′′ (41-70% = ′′′) | IFN-γ ELISpot response [7]: 89 SFU | Significant response as percentage of maximal peptide SFU [21]: + (>70% = +) | Significant response as percentage of maximal peptide SFU (patient II, max peptide 15 SFU): ′′′ (41-70% = ′′′) | Significant response as percentage of maximal peptide SFU (patient J, max peptide 196 SFU): + (>70% = +) | Significant response as percentage of maximal peptide SFU (patient K, max peptide 53 SFU): ′′′ (41-70% = ′′′) | Significant response as percentage of maximal peptide SFU (patient L, max peptide 11 SFU): + (>70% = +) | Significant response as percentage of maximal peptide SFU (patient M, max peptide 48 SFU): + (>70% = +) | IFN-γ ELISpot response [8]: 7 SFU | IFN-γ ELISpot response [9]: 64 SFU | Significant response as percentage of maximal peptide SFU (patient P, max peptide 64 SFU): + (>70% = +) | IFN-γ ELISpot response [10]: 97 SFU | Significant response as percentage of maximal peptide SFU (patient Q, max peptide 97 SFU): + (>70% = +) | IFN-γ ELISpot response [11]: 81 SFU | Significant response as percentage of maximal peptide SFU (patient U, max peptide 81 SFU): + (>70% = +) | IFN-γ ELISpot response [12]: 30 SFU | Significant response as percentage of maximal peptide SFU (patient V, max peptide 35 SFU): + (>70% = +) | IFN-γ ELISpot response [13]: 11 SFU | Significant response as percentage of maximal peptide SFU (patient Y, max peptide 16 SFU): ′′′ (41-70% = ′′′) | IFN-γ ELISpot response [14]: 38 SFU | Significant response as percentage of maximal peptide SFU (patient eleven, max peptide 57 SFU): ′′′ (41-70% = ′′′) | Significant response as percentage of maximal peptide SFU [23]: + (>70% = +) | IFN-γ ELISpot response [15]: 24 SFU | Significant response as percentage of maximal peptide SFU (patient four, max peptide 44 SFU): ′′′ (41-70% = ′′′) | IFN-γ ELISpot response [16]: 6 SFU | IFN-γ ELISpot response [17]: 6 SFU | IFN-γ ELISpot response [18]: 146 SFU | IFN-γ ELISpot response [19]: 18 SFU | IFN-γ ELISpot response [20]: 36 SFU | Significant response as percentage of maximal peptide SFU [24]: ′′′ (41-70% = ′′′)

PFPEQPEQPFPQP
IFN-γ ELISpot response [1]: 4 SFU | Significant response as percentage of maximal peptide SFU [22]: ′′ (21-40% = ′′) | IFN-γ ELISpot response [2]: 30 SFU | Significant response as percentage of maximal peptide SFU (patient E, max peptide 224 SFU): ′ (11-20% = ′) | IFN-γ ELISpot response [3]: 32 SFU | Significant response as percentage of maximal peptide SFU (patient F, max peptide 178 SFU): ′ (11-20% = ′) | IFN-γ ELISpot response [4]: 5 SFU | IFN-γ ELISpot response [5]: 19 SFU | IFN-γ ELISpot response [6]: 17 SFU | Significant response as percentage of maximal peptide SFU (patient H, max peptide 17 SFU): + (>70% = +) | IFN-γ ELISpot response [7]: 24 SFU | Significant response as percentage of maximal peptide SFU [21]: ′′ (21-40% = ′′) | Significant response as percentage of maximal peptide SFU (patient J, max peptide 196 SFU): ′′ (21-40% = ′′) | Significant response as percentage of maximal peptide SFU (patient K, max peptide 53 SFU): ′′ (21-40% = ′′) | Significant response as percentage of maximal peptide SFU (patient M, max peptide 48 SFU): ′′ (21-40% = ′′) | IFN-γ ELISpot response [8]: 2 SFU | IFN-γ ELISpot response [9]: 8 SFU | IFN-γ ELISpot response [10]: 35 SFU | Significant response as percentage of maximal peptide SFU (patient Q, max peptide 97 SFU): ′′ (21-40% = ′′) | IFN-γ ELISpot response [11]: 13 SFU | Significant response as percentage of maximal peptide SFU (patient U, max peptide 81 SFU): ′ (11-20% = ′) | IFN-γ ELISpot response [12]: 16 SFU | Significant response as percentage of maximal peptide SFU (patient V, max peptide 35 SFU): ′′′ (41-70% = ′′′) | IFN-γ ELISpot response [13]: 4 SFU | IFN-γ ELISpot response [14]: 4 SFU | Significant response as percentage of maximal peptide SFU [23]: ′′ (21-40% = ′′) | IFN-γ ELISpot response [15]: 6 SFU | IFN-γ ELISpot response [16]: 9 SFU | IFN-γ ELISpot response [17]: 5 SFU | IFN-γ ELISpot response [18]: 51 SFU | IFN-γ ELISpot response [19]: 11 SFU | IFN-γ ELISpot response [20]: 24 SFU | Significant response as percentage of maximal peptide SFU [24]: ′′ (21-40% = ′′)
